From patent US4288609A, “Quaternary ammonium derivatives of adamantane with antimicrobic activity” (priority 1976, dated 1981)
Several values for one entry are separate records, joined by “and”; a condition that tells them apart may be missing. Identical values can stand only once. Like-named read-outs stand apart in the source and are kept apart here.

Assays:
Staph.Aureus Tour = assay: M.I.C. in vitro, gram+ Staph. Aureus (Table 1); assay type: cell-based, Staphylococcus Aureus
Method in brief: (§1)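 Broth dilution MIC: compound added to culture media pre-inoculated with a set number of organisms, incubated 24 or 48 h at 30 or 37 °C depending on the organism. Growth read visually; MIC expressed in γ/ml.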

Diplococcus Pneum. ISM = assay: M.I.C. in vitro, gram+ Diplococcus Pneum. (Table 1); assay type: cell-based; details: read-out: M.I.C.
Method in brief: as §1

[1] = tested on: Streptococ. Henclyt. 0203; assay: M.I.C. in vitro, gram+ Streptococ. Henclyt. (Table 1); assay type: cell-based
Method in brief: as §1

Esch. Coli. SKF 12140 = assay: M.I.C. in vitro, gram- Esch. Coli (Table 1); assay type: cell-based, Escherichia Coli; details: Escherichia coli, read-out: M.I.C.
Method in brief: as §1

Klens. Pneum. ISM = assay: M.I.C. in vitro, gram- Klens. Pneum. (Table 1); assay type: cell-based
Method in brief: as §1

Proteus Vulc. ATCC 881 = assay: M.I.C. in vitro, gram- Proteus Vulc. (Table 1); assay type: cell-based; details: read-out: M.I.C.
Method in brief: as §1

Pseudom.Aer. ATCC 1014 = assay: M.I.C. in vitro, gram- Pseudom. Aer. (Table 1); assay type: cell-based, Pseudomonas Aeruginosa
Method in brief: as §1

[2] = tested on: Trych. Mentagr. 1st.Pastuer; assay: MIC mildews, Trichophyton mentagrophytes (Table 2); assay type: cell-based; details: Sabourand broth
[3] = tested on: Nicrosporum Canis ATCC 11621; assay: MIC mildews, Microsporum canis (Table 2); assay type: cell-based; details: Sabourand broth
Candida Albic. SKF 2270 = assay: MIC yeasts, Candida albicans (Table 2); assay type: cell-based; details: for MIC: Sabourand broth
Method in brief: (§2)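 Candida inoculum (10^3 cells/ml, from 24 h cultures at 30° C) in Sabouraud broth containing graded compound concentrations.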

[4] = tested on: Candida Pseudotrop. ATCC 2512; assay: MIC yeasts, Candida pseudotropicalis (Table 2); assay type: cell-based; details: Sabourand broth
Method in brief: as §2

[5] = tested on: Trich. Vaginalis ISM 66/22; assay: MIC protozoa, Trichomonas vaginalis (Table 2); assay type: cell-based; details: +10% serum (head); Kupferberg Trichomonas broth with 5% of horse serum
Method in brief: (§3)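 Test substance was added at set concentrations to Kupferberg Trichomonas broth with 5% horse serum, inoculated with T. vaginalis or T. foetus at 3.5% of medium volume. Growth was assessed after 24 or 48 h incubation at 30° or 37 °C. MIC is the minimum concentration inhibiting growth.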

Trich. Foetus ISM 66/23 = assay: MIC protozoa, Trichomonas foetus (Table 2); assay type: cell-based; details: +10% serum (head); Kupferberg Trichomonas broth with 5% of horse serum
Method in brief: as §3

[6] = tested on: Trichophyton Mentagrophytes Ist. Pasteur; assay: Speed of sterilising action, Trichophyton Mentagrophytes (Table 3); assay type: cell-based
Protocol: (§4) The strains, inoculants, culture broths and experimental methods are as already seen for calculating the M.I.C. in vitro. The antimicrobic substances were tested at concentrations of 0.1, 0.25, 0.5 and 1 g/l, the contact times taken into consideration are 0, 1, 2.5, 5, 7.5, 10, 15, 30 and 60 minutes.
(§5) The samples which at the 7th day of incubation still had no growth of micro-organisms which could be observed macroscopically and/or microscopically were considered sterile.
(§6) The results are recorded in Table 3 in terms of sterilization time expressed in minutes.

[7] = tested on: Candida Albicans SKF 2270; assay: Speed of sterilising action, Candida Albicans (Table 3); assay type: cell-based
Protocol: as §4, §5, §6

[8] = Acute oral toxicity in mice (Table 4); details: mouse, in vivo, po, LD50, oral, mice, 14 days
Protocol: The substances were administered orally to groups of 10 female mice CF1 of average weight of about 20 grams, in aqueous solution and in such way that the total volume administered would be in each case 1 ml/100 g of weight.

[9] = tested on: Trichophyton Mentagrophytes; assay: Topical activity upon dermatophytis from Trichophyton in cavies (Table 6); assay type: in vivo, Albino cavies; details: for evaluation of seriousness of infection (A.D.I.): average index
Protocol: Albino cavies of 250-300 g are infected, after depilation and scarification of a circular area of dorsal skin upon which there are supplied 0.1 ml of a suspension of microconidia of Trichophyton Mentagrophytes from the Pasteur Institute collection, obtained from a culture of 15 days upon Saboureaud agar. 24 Hours after infection topical treatment is started and is continued for two weeks (once per day).
The compounds to be tested are dissolved or suspended at the desired concentration, in a water-alcohol mixture (75/25 v/v) containing 0.75% by weight of carboxymethyl-cellulose (CMC). […] Each single application is carried out using 0.25 ml of the suspension or solution obtained as described above.
Fourteen days after infection the lesions are assessed. Assessment is carried out by attributing index numbers depending upon the seriousness of the lesions formed, as follows:
The substances under examination were tested at concentrations of 5 and 2.5% by weight.

[10] = tested on: gram+ and gram- bacterial strains; assay: Activity in vitro on gram+ and gram- bacteria, overall; assay type: cell-based; details: gram positive and gram negative strains, low concentrations
Protocol: The method for evaluating the activity in vitro against bacteria, fungi and protozoa consists in introducing calculated quantities of the substance, the activity of which it is desired to test, into culture media already inoculated with a predetermined number of test germs.
After 24 or 48 hours of incubation at 30° or 37° C., according to the micro-organism being tested, it is possible to evaluate the growth of the same in the culture broth; in this manner the minimum concentration (M.I.C.) which inhibits the growth of the micro-organisms in vitro is determined.
In table 1 there are recorded the M.I.C. values in γ/ml of the products subject of the present invention, against certain gram+ and gram- bacterial strains, some of which are pathogenic towards human beings.

[11] = tested on: all the micro-organisms tested; assay: Speed of sterilising action, all micro-organisms; assay type: cell-based; details: even with a very low concentration
Protocol: as §4, §5, §6

For `CCCCCCCCCC[N+](C)(C)CCOC(=O)C12CC3CC(CC(C3)C1)C2` (single isomer, unassigned) [Example 1, n-Decyl-dimethyl-(1-adamantane-carboxy)-ethyl-ammonium bromide], the M.I.C. (Staph.Aureus Tour; +10% serum) was 2 µg/mL, the MIC (Staph.Aureus Tour; Staphylococcus aureus, without serum, read-out: M.I.C.) was < 0.1 µg/mL and the MIC (Diplococcus Pneum. ISM; +10% serum) was 5 µg/mL. The MIC (Diplococcus Pneum. ISM; without serum) was 1 µg/mL, the M.I.C. ([1]; +10% serum) was 0.1 µg/mL and the MIC ([1]; without serum, read-out: M.I.C.) was < 0.1 µg/mL. The MIC (Esch. Coli. SKF 12140; +10% serum) was 50 µg/mL, the MIC (Esch. Coli. SKF 12140; without serum) was 5 µg/mL and the MIC (Klens. Pneum. ISM; +10% serum, read-out: M.I.C.) was 50 µg/mL. The M.I.C. (Klens. Pneum. ISM; without serum) was 5 µg/mL, the MIC (Proteus Vulc. ATCC 881; +10% serum) was 50 µg/mL and the MIC (Proteus Vulc. ATCC 881; without serum) was 10 µg/mL. The MIC (Pseudom.Aer. ATCC 1014; Pseudomonas aeruginosa, ATCC1014, +10% serum, read-out: M.I.C.) was 50 µg/mL, the M.I.C. (Pseudom.Aer. ATCC 1014; without serum) was 20 µg/mL and the MIC ([2]; +10% serum) was 5 µg/mL. For the same compound, the MIC ([2]; without serum) was 0.1 µg/mL, the MIC ([3]; Microsporum canis, ATCC11621, +10% serum, read-out: MIC) was 10 µg/mL and the MIC ([3]; without serum) was 0.1 µg/mL. For the same compound, the MIC (Candida Albic. SKF 2270; +10% serum) was 10 µg/mL, the “activity on Candida albicans, times greater than that of cetyl pyridine chloride” value (Candida Albic. SKF 2270; in the absence of serum) was “about 25 times” and the “activity on Candida albicans, times higher than that of cetyl pyridine chloride” value (Candida Albic. SKF 2270; in the presence of 10% of horse serum) was 5-10 times. For the same compound, the MIC (Candida Albic. SKF 2270; without serum) was 0.2 µg/mL, the MIC ([4]; +10% serum) was 20 µg/mL and the MIC ([4]; without serum) was < 0.1 µg/mL. For the same compound, the MIC [5] was 5 µg/mL, the MIC (Trich. Foetus ISM 66/23) was 2 µg/mL and the sterilization time ([6]; 0.1 g/l) was 60 min. The sterilization time ([6]; 0.25 g/l) was 30 min, the sterilization time ([6]; 0.5 g/l) was 15 min and the sterilization time ([6]; 1 g/l) was 5 min. For the same compound, the sterilization time ([7]; 0.1 g/l) was 30 min, the sterilization time ([7]; 0.25 g/l) was 2.5 min and the sterilization time ([7]; 0.5 g/l) was 1 min. For the same compound, the sterilization time ([7]; 1 g/l) was 1 min, the LD50 at 336 h [8] was 910 mg/kg and the “A.D.I. (% of control group)” value ([9]; 2.5% by weight) was 31.09%. The “healing % (100-A.D.I. %)” value ([9]; 2.5% by weight) was 68.91%, the “evaluation of seriousness of infection (A.D.I.)” value ([9]; 2.5% by weight) was 0.83 and the “A.D.I. (% of control group)” value ([9]; 5% by weight) was 12.36%. For the same compound, the “healing % (100-A.D.I. %)” value ([9]; 5% by weight) was 87.64% and ~90%, the “evaluation of seriousness of infection (A.D.I.)” value ([9]; 5% by weight) was 0.33 and the “in vivo activity against Trichophyton Mentagrophytes (in words)” value ([9]; in vivo) was “excellent "in vivo" activity against Trichophyton Mentagrophytes”. For the same compound, the “antibacterial activity (in words)” value [10] was “powerful antibacterial activity at low concentrations” and the “sterilising action (in words)” value [11] was “swift sterilising action on all the micro-organisms tested”.
